# Assay results reported in US9771394B2, “Antimicrobial polymyxins for treatment of bacterial infections” (priority 2014, dated 2017).
# Where two headings read alike, the source gives them in different places. Starred links: 1 amine or outer side, 2 acyl side, 3 side chain; linkers in the order of their positions; H or OH if unused. Positions of bridges follow the written chain, without caps; N, C: chain ends. Non-standard residues stand in square brackets, D forms with d. Residues, ends and D or L forms follow the SMILES beside them. ξ: configuration not given here. *: point of attachment. X8 = NCC[C@H](OC(=O)Cc1ccc(-c2ccccc2)cc1)C(=O)*; X6 = NCC[C@H](OC(=O)c1ccc(-c2ccccc2)cc1)C(=O)*; X9 = CCC(C)(C)C(=O)OCCC(=O)O[C@@H](CCN)C(=O)*; X3 = CCCCCCCC(=O)O[C@@H](CCN)C(=O)*; X11 = CCCCOP(=O)(CC(=O)*)OCCCC; Thr(3ξ) = CC(O)[C@H](N)C(=O)O; X10 = O=C(C1CNCCN1[*:1])[*:2]; X7 = CC(=O)O[C@@H](CCN)C(=O)*; X1 = CCC(C)(C)C(=O)OCCC(=O)*; X2 = CCCC(C)OC(=O)CCC(=O)*; Dab = NCC[C@H](N)C(=O)O; X4 = CCCCOC(=O)CCC(=O)*; Dap = NC[C@H](N)C(=O)O
# Columns and labels:
# P. aeruginosa PAE 1001 = format: cell-based, Pseudomonas aeruginosa
# Excerpt: (§1) In vitro activity of compounds provided herein may be assessed by standard testing procedures such as the determination of minimum inhibitory concentration (MIC, μg/mL) just as described in “Methods for Dilution Antimicrobial Susceptibility Tests for Bacteria That Grow Aerobically; Approved Standard—Ninth Edition,” published in 2012 by the Clinical and Laboratory Standards Institute, Wayne, Pa., USA. Thus, bacterial colonies grown overnight on Mueller-Hinton Agar plate were selected and suspended in sterile saline to a turbidity of about 80% transmittance, as measured by a spectrophotometer. The suspension was diluted 200-fold with cation-adjusted Mueller-Hinton broth to serve as the inoculum for testing. Two-fold serial dilutions of the test compound were performed in 96-well master plate to arrive at desired concentration. Samples of 10 microliter from each well of the master plate were transferred into respective wells of 96-well assay plate. Bacterial inoculum (90 microliter) was introduced into each well of the assay plate. The assay plate was placed in the incubator at 35° C. for about 24 h (without agitation) followed by the MIC determination. MIC values were determined based on the presence or absence of bacterial growth in wells at the given test agent concentration. MIC value is defined as the lowest concentration of test antibiotic that prevents visible bacterial growth.
# (§2) The useful activity of exemplary compounds described herein against Gram-negative pathogens Pseudomonas aeruginosa, Escherichia coli, or Klebsiela pneumoniae is illustrated by the MIC data of Table 1.
# K. pneumoniae KPN1004 = format: cell-based, Klebsiela pneumoniae
# Excerpt: as §1, §2
# E. coli WECO 1003 = format: cell-based, Escherichia coli
# Excerpt: as §1, §2
# [1] = Stability in human plasma at 37° C.; format: in vitro ADME; settings: for remaining at 1 h, 25 μM / remaining at 4 h, 25 μM: human, plasma
# Experimental: Exemplary compounds of this invention were tested for stability in human plasma at 37° C., replicating in vivo conditions of mammalian blood. Plasma stability for select compounds was performed as follows. Human plasma (K2 EDTA) was obtained from Bioreclamation. The assay was carried out in 96-well microtiter plates. Test compounds were incubated in duplicate at 37° C. in the presence of plasma. Reaction mixtures (25 μL) contained a final concentration of 25 μM test compound. The extent of metabolism was calculated as the disappearance of the test compound over time. Eucatropine was included as a positive control to verify assay performance. At each given time point, 100 μL of quench solution (100% MeCN with 0.1% HCOOH) with internal standard was transferred to each well. Plates were sealed, vortexed, and centrifuged at 4° C. for 15 minutes at 4,000 rpm. The supernatant was transferred to fresh plates for LC/MS/MS analysis. The formation of a potential metabolite was monitored in all samples. The samples were analyzed on LC/MS/MS using an AB Sciex API 4000 instrument, coupled to a Shimadzu LC-20AD LC Pump system. Analytical samples were separated using a Waters Atlantis T3 dC18 reverse phase HPLC column (20 mm×2.1 mm) at […] a flow rate of 0.5 mL/min, eluting with 0.1% aq. HCOOH and 0.1% HCOOH in MeCN (using gradient from 2% to 98% of the latter). Remaining test compounds were quantified via MS/MS ion current.
# P. aeruginosa [2] = assay: P. aeruginosa thigh infection mouse model, IV dosing; format: in vivo, Pseudomonas aeruginosa; settings: CFU change at 12 h vs no treatment control, PMB values in parenthesis side-by-side
# Excerpt: (§3) A lower ED50 value indicates a higher therapeutic efficacy of the drug. The number of surviving animals (from the total number of infected animals used at a given drug dose) is another indicator of efficacy. […] In thigh and lung infection models, a greater reduction in the bacterial colony-forming units (CFU) indicates stronger beneficial therapeutic effect (more bacterial eradication), while a lower CFU reduction or an increase in CFU value indicates a lower effect (less bacterial eradication), or an absence of the therapeutic effect.
# P. aeruginosa [3] = assay: P. aeruginosa lung infection (pneumonia) mouse model, SC dosing; format: in vivo, Pseudomonas aeruginosa
# Excerpt: as §3
# E. coli = E. coli septicemia (systemic) mouse model, IV dosing; format: in vivo, Escherichia coli; settings: PMB values are side-by-side comparator
# Excerpt: as §3
# human HK-2 cell = assay: Human HK-2 cell cytotoxicity assay (in vitro nephrotoxicity); format: cell-based
# Excerpt: Nephrotoxicity of polymyxins could be determined in vitro using human renal […] (HK-2) cytotoxicity assay, analogously to that described, for example, by Keirstead et al. in Toxicol. Sci., 2014, vol. 137, pp. 278-291. In vivo, nephrotoxicity could be determined using urine biomarker assays, such as clinically validated neutrophil gelatinase-associated lipocalin (NGAL) assay described, for example by Devarajan in Scand. J. Clin. Lab. Invest. Suppl., 2008, vol. […], pp. 89-94.
# [4] = 35° C., about 24 h, cation-adjusted Mueller-Hinton broth
SMILES,"Antibacterial activity (MIC) P. aeruginosa PAE 1001 (P. aeruginosa PAE 1001; PAE 1001, 24 h) [µg/mL]","Antibacterial activity (MIC) K. pneumoniae KPN1004 (K. pneumoniae KPN1004; KPN1004, 24 h) [µg/mL]","Antibacterial activity (MIC) E. coli WECO 1003 (E. coli WECO 1003; WECO 1003, 24 h) [µg/mL]",further results
CC(C)C[C@@H]1NC(=O)[C@@H](Cc2ccccc2)NC(=O)[C@H](CCN)NC(=O)[C@@H](NC(=O)[C@H](CCN)NC(=O)[C@@H](NC(=O)[C@H](CCN)OC(=O)Cc2ccc(-c3ccccc3)cc2)C(C)O)CCNC(=O)[C@H](C(C)O)NC(=O)[C@H](CCN)NC(=O)[C@H](CCN)NC1=O (stereo partly drawn) [Example 2] (X8-[Thr(3ξ)][Dab][Dab][Dab][dF]L[Dab][Dab][Thr(3ξ)]; lactam 3-C),4,2,8,
CC(C)C[C@@H]1NC(=O)[C@@H](Cc2ccccc2)NC(=O)[C@H](CCN)NC(=O)[C@@H](NC(=O)[C@H](CCN)NC(=O)[C@@H](NC(=O)[C@H](CCN)OC(=O)c2ccc(-c3ccccc3)cc2)C(C)O)CCNC(=O)[C@H](C(C)O)NC(=O)[C@H](CCN)NC(=O)[C@H](CCN)NC1=O (stereo partly drawn) [Example 3] (X6-[Thr(3ξ)][Dab][Dab][Dab][dF]L[Dab][Dab][Thr(3ξ)]; lactam 3-C),4,4,4,
CCCCOC(=O)CCC(=O)N[C@@H](CCN)C(=O)N[C@H](C(=O)N[C@@H](CCN)C(=O)N[C@H]1CCNC(=O)[C@H](C(C)O)NC(=O)[C@H](CCN)NC(=O)[C@H](CCN)NC(=O)[C@H](CC(C)C)NC(=O)[C@@H](Cc2ccccc2)NC(=O)[C@H](CCN)NC1=O)C(C)O (stereo partly drawn) [Example 7] (X4-[Dab][Thr(3ξ)][Dab][Dab][Dab][dF]L[Dab][Dab][Thr(3ξ)]; lactam 4-C),4,2,4,"remaining at 1 h, 25 μM [1]: 49%; remaining at 4 h, 25 μM [1]: 15%; P. aeruginosa Thigh model, IV dosing ΔlogCFU at 5 mg/kg (P. aeruginosa [2]): −0.50"
CCC(C)(C)C(=O)OCCC(=O)N[C@@H](CCN)C(=O)N[C@H](C(=O)N[C@@H](CCN)C(=O)N[C@H]1CCNC(=O)[C@H](C(C)O)NC(=O)[C@H](CCN)NC(=O)[C@H](CCN)NC(=O)[C@H](CC(C)C)NC(=O)[C@@H](Cc2ccccc2)NC(=O)[C@H](CCN)NC1=O)C(C)O (stereo partly drawn) [Example 12] (X1-[Dab][Thr(3ξ)][Dab][Dab][Dab][dF]L[Dab][Dab][Thr(3ξ)]; lactam 4-C),4,2,2,"remaining at 1 h, 25 μM [1]: 67%; remaining at 4 h, 25 μM [1]: 31%; Relative CFU count, vs. PMB (P. aeruginosa [3]; mouse lung infection, 10 mg/kg): 1.7 × 10^−5; P. aeruginosa Lung infection model ΔlogCFU at 10 mg/kg (P. aeruginosa [3]; mouse, CFU change at 24 h vs starting inoculum): −2.15; P. aeruginosa Thigh model, IV dosing ΔlogCFU at 5 mg/kg (P. aeruginosa [2]): −1.44; E. coli Systemic model, IV dosing ED50 (E. coli): 2.5 mg/kg; number (A) of surviving animals out of total (B) mice, A/B (E. coli; at 5 mg/kg): 3/6; HK-2 cytotoxicity class (human HK-2 cell): Class 4; IC50 (human HK-2 cell): > 200 µM"
CCCCOP(=O)(CC(=O)N[C@@H](CCN)C(=O)N[C@H](C(=O)N[C@@H](CCN)C(=O)N[C@H]1CCNC(=O)[C@H](C(C)O)NC(=O)[C@H](CCN)NC(=O)[C@H](CCN)NC(=O)[C@H](CC(C)C)NC(=O)[C@@H](Cc2ccccc2)NC(=O)[C@H](CCN)NC1=O)C(C)O)OCCCC (stereo partly drawn) [Example 30] (X11-[Dab][Thr(3ξ)][Dab][Dab][Dab][dF]L[Dab][Dab][Thr(3ξ)]; lactam 4-C),,,,Antibacterial activity (MIC) P. aeruginosa PAE 1001 (P. aeruginosa PAE 1001; [4]): 2 µg/mL; Antibacterial activity (MIC) K. pneumoniae KPN1004 (K. pneumoniae KPN1004; [4]): 4 µg/mL; Antibacterial activity (MIC) E. coli WECO 1003 (E. coli WECO 1003; [4]): 2 µg/mL
"CCCCCCCC(=O)O[C@@H](CCN)C(=O)N[C@H](C(=O)N[C@@H](CCN)C(=O)N[C@H]1CCNC(=O)[C@H](C(C)O)NC(=O)[C@H](CCN)NC(=O)[C@H](CCN)NC(=O)[C@H](CC(C)C)NC(=O)[C@@H](Cc2ccccc2)NC(=O)[C@H](CCN)NC1=O)C(C)O (stereo partly drawn) [Reference Example 1, reference compound] (X3-[Thr(3ξ)][Dab][Dab][Dab][dF]L[Dab][Dab][Thr(3ξ)]; lactam 3-C)",8,2,4,"formation of the expected metabolite (compound of Example 44) by MS analysis [1]: no formation; metabolism in human plasma [1]: no discernable metabolism; remaining at 4 h, 25 μM [1]: 100%; P. aeruginosa Thigh model, IV dosing ΔlogCFU at 5 mg/kg (P. aeruginosa [2]): −1.92"

# Further lines, with some results ahead:
"Antibacterial activity (MIC) P. aeruginosa PAE 1001 (P. aeruginosa PAE 1001; PAE 1001, 24 h) [µg/mL]","Antibacterial activity (MIC) K. pneumoniae KPN1004 (K. pneumoniae KPN1004; KPN1004, 24 h) [µg/mL]","Antibacterial activity (MIC) E. coli WECO 1003 (E. coli WECO 1003; WECO 1003, 24 h) [µg/mL]",SMILES,further results
8,8,8,CCCC(C)OC(=O)CCC(=O)N1CCNCC1C(=O)N[C@H](C(=O)N[C@@H](CCN)C(=O)N[C@H]1CCNC(=O)[C@H](C(C)O)NC(=O)[C@H](CCN)NC(=O)[C@H](CCN)NC(=O)[C@H](CC(C)C)NC(=O)[C@@H](Cc2ccccc2)NC(=O)[C@H](CCN)NC1=O)C(C)O (stereo partly drawn) [Example 31] (X2-[X10][Thr(3ξ)][Dab][Dab][Dab][dF]L[Dab][Dab][Thr(3ξ)]; lactam 4-C),
4,4,4,CCC(C)(C)C(=O)OCCC(=O)O[C@@H](CCN)C(=O)N[C@H](C(=O)N[C@@H](CCN)C(=O)N[C@H]1CCNC(=O)[C@H](C(C)O)NC(=O)[C@H](CCN)NC(=O)[C@H](CCN)NC(=O)[C@H](CC(C)C)NC(=O)[C@@H](Cc2ccccc2)NC(=O)[C@H](CCN)NC1=O)C(C)O (stereo partly drawn) [Example 34] (X9-[Thr(3ξ)][Dab][Dab][Dab][dF]L[Dab][Dab][Thr(3ξ)]; lactam 3-C),
4,4,1,CCC(C)(C)C(=O)OCCC(=O)N[C@@H](CN)C(=O)N[C@H](C(=O)N[C@@H](CCN)C(=O)N[C@H]1CCNC(=O)[C@H](C(C)O)NC(=O)[C@H](CCN)NC(=O)[C@H](CCN)NC(=O)[C@H](CC(C)C)NC(=O)[C@@H](Cc2ccccc2)NC(=O)[C@H](CCN)NC1=O)C(C)O (stereo partly drawn) [Example 35] (X1-[Dap][Thr(3ξ)][Dab][Dab][Dab][dF]L[Dab][Dab][Thr(3ξ)]; lactam 4-C),
8,>32,8,CC(=O)O[C@@H](CCN)C(=O)N[C@H](C(=O)N[C@@H](CCN)C(=O)N[C@H]1CCNC(=O)[C@H](C(C)O)NC(=O)[C@H](CCN)NC(=O)[C@H](CCN)NC(=O)[C@H](CC(C)C)NC(=O)[C@@H](Cc2ccccc2)NC(=O)[C@H](CCN)NC1=O)C(C)O (stereo partly drawn) [Example 43] (X7-[Thr(3ξ)][Dab][Dab][Dab][dF]L[Dab][Dab][Thr(3ξ)]; lactam 3-C),
>32,>32,>32,"CC(C)C[C@@H]1NC(=O)[C@@H](Cc2ccccc2)NC(=O)[C@H](CCN)NC(=O)[C@@H](NC(=O)[C@H](CCN)NC(=O)[C@@H](N)[C@@H](C)O)CCNC(=O)[C@H]([C@@H](C)O)NC(=O)[C@H](CCN)NC(=O)[C@H](CCN)NC1=O [Reference Example 40, Polymyxin B nonapeptide, reference compound] (H-T[Dab][Dab][Dab][dF]L[Dab][Dab]T; lactam 3-C)",HK-2 cytotoxicity class (human HK-2 cell): Class 4; IC50 (human HK-2 cell): > 200 µM
